Read-outs that look alike come from different tables or passages of the source.
Tests used:
[1] = DPPH free radical scavenging assay; details: for DPPH radical % Inhibition (Mean±SEM): n 3; for IC50: read-out: DPPH scavenging IC50
[2] = ABTS free radical scavenging assay; details: for ABTS radical % Inhibition (Mean±SEM): n 3; for IC50: read-out: ABTS scavenging IC50
[3] = target: T1, butyrylcholinesterase (BChE) (Equus caballus, UniProt P81908); assay: biochemical; details: read-out: BChE % Inhibition (Mean±SEM)
[4] = target: T1, butyrylcholinesterase (BChE); details: n 3

T1 sequence (P81908 whole entry): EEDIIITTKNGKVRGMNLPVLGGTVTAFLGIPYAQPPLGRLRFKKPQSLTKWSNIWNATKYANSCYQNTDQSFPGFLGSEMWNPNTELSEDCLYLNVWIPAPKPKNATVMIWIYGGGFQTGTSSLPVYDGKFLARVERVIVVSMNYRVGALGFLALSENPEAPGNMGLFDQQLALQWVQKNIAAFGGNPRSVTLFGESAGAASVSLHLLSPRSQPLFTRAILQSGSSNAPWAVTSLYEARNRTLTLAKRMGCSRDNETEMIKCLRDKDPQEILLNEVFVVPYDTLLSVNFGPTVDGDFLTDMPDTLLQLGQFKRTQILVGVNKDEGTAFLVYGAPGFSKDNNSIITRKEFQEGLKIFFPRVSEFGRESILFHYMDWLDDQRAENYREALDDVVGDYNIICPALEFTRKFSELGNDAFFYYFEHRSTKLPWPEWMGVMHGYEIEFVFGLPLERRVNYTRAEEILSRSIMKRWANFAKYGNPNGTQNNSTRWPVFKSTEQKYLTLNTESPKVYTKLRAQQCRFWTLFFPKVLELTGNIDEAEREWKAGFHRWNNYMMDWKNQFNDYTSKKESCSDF

Row | Molecule | DPPH radical % Inhibition (Mean±SEM) ([1]; 15.62 µg/mL) | DPPH radical % Inhibition (Mean±SEM) ([1]; 31.25 µg/mL) | DPPH radical % Inhibition (Mean±SEM) ([1]; 62.5 µg/mL) | DPPH radical % Inhibition (Mean±SEM) ([1]; 125 µg/mL) | DPPH radical % Inhibition (Mean±SEM) ([1]; 250 µg/mL) | DPPH radical % Inhibition (Mean±SEM) ([1]; 500 µg/mL) | DPPH radical % Inhibition (Mean±SEM) ([1]; 1000 µg/mL) | IC50 [1] | ABTS scavenging IC50 [2] | ABTS radical % Inhibition (Mean±SEM) ([2]; 15.62 µg/mL) | ABTS radical % Inhibition (Mean±SEM) ([2]; 31.25 µg/mL) | ABTS radical % Inhibition (Mean±SEM) ([2]; 62.5 µg/mL) | ABTS radical % Inhibition (Mean±SEM) ([2]; 125 µg/mL) | ABTS radical % Inhibition (Mean±SEM) ([2]; 250 µg/mL) | ABTS radical % Inhibition (Mean±SEM) ([2]; 500 µg/mL) | ABTS radical % Inhibition (Mean±SEM) ([2]; 1,000 µg/mL) | IC50 [2] | further results
1 | O=C1O[C@H]([C@@H](O)CO)C(O)=C1O [Ascorbic Acid, reference compound] | 77.28±0.79% | 82.74±0.23% | 84.44±0.15% | 87.25±0.48% | 91.54±0.37% | 93.65±0.54% | 95.63±0.12% | 0.173 µM | <0.1 µg/mL | 77.65±0.32% | 79.29±0.91% | 81.75±0.85% | 84.68±0.56% | 85.34±0.47% | 88.25±0.87% | 92.36±0.65% | 0.129 µM | DPPH scavenging IC50 [1]: <0.1 µg/mL
2 | COc1ccc2c3c1O[C@H]1C[C@@H](O)C=C[C@@]31CCN(C)C2 [Galantamine] |  |  |  |  |  |  |  |  |  |  |  |  |  |  |  |  |  | inhibition at 15.62 µg/mL [3]: 82.76 ± 0.44%
3 | ({3-[(4-Methoxy-2-Nitrophenyl) Carbamoyl] Propanoyl} Zincio 3-[(2-Methoxy-5-Nitrophenyl) Carbamoyl] Propanoate Pyridine [AAZ8] | 69.87±0.59% | 73.47±0.26 % | 75.68±0.97% | 77.85±0.39 % | 79.54±0.63 % | 81.69±0.45 % | 83.97±0.12% | 29 µM | 29 µg/mL | 65.39±0.89% | 70.28±0.36 % | 73.62±0.29% | 77.45±0.87 % | 78.36±0.58% | 79.27±0.64 % | 81.35±0.35% | 41 µM | BChE % Inhibition (Mean±SEM) ([4]; 15.62 µg/mL): 77.93±0.78 %; BChE % Inhibition (Mean±SEM) ([4]; 31.25 µg/mL): 79.31±0.67%; BChE % Inhibition (Mean±SEM) ([4]; 62.5 µg/mL): 80.72±0.58%; BChE % Inhibition (Mean±SEM) ([4]; 125 µg/mL): 81.64±1.04 %; BChE % Inhibition (Mean±SEM) ([4]; 250 µg/mL): 83.54±0.74%; BChE % Inhibition (Mean±SEM) ([4]; 500 µg/mL): 84.13±0.45 %; BChE % Inhibition (Mean±SEM) ([4]; 1,000 µg/mL): 85.17±0.87 %

Source: publication PMC8232895 (Drug Design, Development and Therapy, 2021)
